The assay concerns Adult female mongrel dogs. As to the kind of experiment: Partial agonist screen in indomethacin-treated dogs under water diuresis (urine volume and osmolality). It counts as in vivo. As for the experimental part: The compounds are tested for partial agonist activity by the following procedures:
Adult female mongrel dogs are fasted for 18 hours prior to testing. The studies are conducted under steady state water diuresis initiated by a 5% body weight water load and a 3% dextrose infusion. At 0 hour, indomethacin, a cyclooxygenase inhibitor, is administered (2 mg/kg i.v. bolus and 3 mg/kg/hr i.v. infusion). Twenty minutes later, the test compound is administered i.v. Urine volume and osmolality are measured every 10 minutes for 4 hours.
The indomethacin dog model may predict the agonist activity of a compound in man.

Positions of bridges follow the written chain, without caps; N, C: chain ends. No end group written: not given here.

As for “ADH: the natural anti-diuretic hormone (ADH), vasopressin (CYFQNCPRG-NH2; disulfide 1-6; ends not checked; UniProt P01185 20-28, looked up)”, the “antidiuretic activity (urine osmolality, volume) after treatment with indomethacin” value is given as “potentiates the antidiuretic activity”.

The record behind these values is EP0346068A2, “D-Cys6 vasopressin antagonists” (SMITHKLINE BECKMAN CORPORATION, priority 1988, dated 1989).
